Reference: US20230138310A1 (priority 2020, published 2023)
“And” between values parts separate entries of the source, which are not always exact repeats. Identical values can stand only once. Like-named read-outs stand apart in the source and are kept apart here.

Key:
2019-nCov [1] = assay: Inhibitory activity against the replication of 2019-nCov (cytopathic effect, MTS); format: cell-based; details: for EC50: Severe acute respiratory syndrome coronavirus 2, gradient concentrations, CQ as positive control, read-out: EC50 against 2019-nCoV virus replication; for anti-virus activity against 2019-nCoV (in words): viral level, compared with positive control CQ
[2] = Half-toxic concentration (CC50) with CCK8 kit; format: cell-based; details: African green monkey, Vero E6 cells, in duplicate
Description: In this example, the half-toxic concentrations (CC50) of some compounds of the present invention to Vero E6 cells were determined with CCK8 kit in duplicate.

[3] = target: T1, 3CL protease of 2019 Novel Coronavirus (2019-nCoV 3CLpro) (Severe acute respiratory syndrome coronavirus 2, UniProt P0DTD1); assay: FRET inhibitory activity against 3CL protease of 2019 Novel Coronavirus; format: biochemical; details: for inhibition at 1 µM: read-out: Inhibition rate (1 μM), 3CL protease of 2019 Novel Coronavirus
T1 construct: the 3CL protease of 2019 Novel Coronavirus (2019-nCoV 3CL^pro)

2019-nCov [4] = details: positive control, stated as existing value; read-out: EC50 of existing positive compound CQ against 2019-nCoV virus replication; cited from earlier work
[5] = FRET, tables 1A/1B, read-out: IC50 (nM) of SARS-CoV-2 3 CL protease
[6] = read-out: IC50 against 2019-nCoV 3CL protease

Compound | IC50 [3, 5] [nM] | inhibition at 1 µM ([3]; compound at 1 μM) [%] | IC50 [3, 6] | inhibition at 1 µM [3] [%] | also measured
O=C[C@H](C[C@@H]1CCNC1=O)NC(=O)[C@H](CC1CCCCC1)NC(=O)c1cc2ccccc2[nH]1 [Compound 48] | – | – | – | – | EC50 (2019-nCov [1]): 0.29 µM; anti-virus activity against 2019-nCoV (in words) (2019-nCov [1]): better than that of the positive control CQ; anti-virus activity against 2019-nCoV (in words) (2019-nCov [1]; listed as 2234): excellent anti-virus activity; CC50 [2]: > 100 µM
O=C[C@H](C[C@@H]1CCNC1=O)NC(=O)[C@H](Cc1ccc(F)c(F)c1)NC(=O)c1cc2ccccc2[nH]1 [Compound 12] | 87 ± 8 | 103 | < 100 nM | – | –
O=C[C@H](C[C@@H]1CCNC1=O)NC(=O)[C@H](CC1CCCCC1)NC(=O)c1cnc2ccccc2n1 [Compound 59] | – | – | – | 86.7 | –
O=C[C@H](C[C@@H]1CCNC1=O)NC(=O)[C@H](CC1CCCCC1)NC(=O)c1cc2ccccc2s1 [Compound 56] | – | – | – | 81.3 | –
CC(C)[C@H](NC(=O)c1cc2ccccc2[nH]1)C(=O)N[C@@H](Cc1ccccc1)C(=O)N[C@H](C=O)C[C@@H]1CCNC1=O [Compound 9, N-{(S)-3-methyl-1-carbonyl-1-{{(S)-1-carbonyl-1-{{(S)-1-carbonyl-3-[(S)-2-carbonylpyrrolidin-3-yl]propan-2-yl}amino}-3-phenylpropan-2-yl}amino}butan-2-yl}indole-2-carboxamide] | 68.1 ± 12.5 | 95.8 | < 100 nM | – | –
CC(C)[C@H](NC(=O)c1cc2ccccc2o1)C(=O)N[C@@H](Cc1ccccc1)C(=O)N[C@H](C=O)C[C@@H]1CCNC1=O [Compound 10, N-{(S)-3-methyl-1-carbonyl-1-{{(S)-1-carbonyl-1-{{(S)-1-carbonyl-3-[(S)-2-carbonylpyrrolidin-3-yl]propan-2-yl}amino}-3-phenylpropan-2-yl}amino}butan-2-yl}benzofuran-2-carboxamide] | 67.5 ± 13.9 | 88.2 | < 100 nM | – | –
CC(C)[C@H](NC(=O)c1ccc2ccccc2n1)C(=O)N[C@@H](CC1CCCCC1)C(=O)N[C@H](C=O)C[C@@H]1CCNC1=O [Compound 16, N-{(S)-3-methyl-1-carbonyl-1-{{(S)-1-carbonyl-1-{{(S)-1-carbonyl-3-[(S)-2-carbonylpyrrolidin-3-yl]propan-2-yl}amino}-3-cyclohexylpropan-2-yl}amino}butan-2-yl}quinoline-2-carboxamide] | 74 | 89.1 | < 100 nM and 73.5 nM | – | anti-virus activity against 2019-nCoV (in words) (2019-nCov [1]): excellent anti-virus activity; CC50 [2]: > 100 µM
O=C[C@H](C[C@@H]1CCNC1=O)NC(=O)[C@H](Cc1ccc(F)cc1)NC(=O)c1cc2ccccc2[nH]1 [Compound 82] | 103 ± 13 | 101 | – | – | –
CC(C)[C@H](NC(=O)c1cc2ccccc2[nH]1)C(=O)N[C@@H](CC1CCC(F)C(F)C1)C(=O)N[C@H](C=O)C[C@@H]1CCNC1=O (stereo partly shown) [Compound 35] | – | – | – | 94.3 | –
O=C[C@H](C[C@@H]1CCNC1=O)NC(=O)[C@H](Cc1cccc(F)c1)NC(=O)c1cc2ccccc2[nH]1 [Compound 81] | – | – | < 100 nM | – | EC50 (2019-nCov [1]): 0.33 ± 0.09 µM; anti-virus activity against 2019-nCoV (in words) (2019-nCov [1]): better than that of the positive control CQ; anti-virus activity against 2019-nCoV (in words) (2019-nCov [1]; listed as 2259): excellent anti-virus activity; CC50 [2]: > 100 µM
O=C[C@H](C[C@@H]1CCNC1=O)NC(=O)[C@H](CC1CCCCC1)NC(=O)c1cc2c(Cl)cc(Cl)cc2[nH]1 [Compound 47] | – | – | – | 90.4 | –
CC(C)[C@H](NC(=O)c1cc2ccccc2[nH]1)C(=O)N[C@@H](CC1CCCCC1)C(=O)N[C@H](C=O)C[C@@H]1CCNC1=O [Compound 5, N-{(S)-3-methyl-1-carbonyl-1-{{(S)-1-carbonyl-1-{{(S)-1-carbonyl-3-[(S)-2-carbonylpyrrolidin-3-yl]propan-2-yl}amino}-3-cyclohexylpropan-2-yl}amino}butan-2-yl}indole-2-carboxamide] | 33.6 ± 3.45 | 95.7 | < 100 nM | – | –
CC(C)[C@H](NC(=O)c1cc2cccc(Br)c2o1)C(=O)N[C@@H](CC1CCCCC1)C(=O)N[C@H](C=O)C[C@@H]1CCNC1=O [Compound 18, 7-Bromo-N-{(S)-3-methyl-1-carbonyl-1-{{(S)-1-carbonyl-1-{{(S)-1-carbonyl-3-[(S)-2-carbonylpyrrolidin-3-yl]propan-2-yl}amino}-3-cyclohexylpropan-2-yl}amino}butan-2-yl}benzofuran-2-carboxamide] | 238 ± 18.7 | 97.8 | – | – | –
CC(C)[C@H](NC(=O)c1cc2ccccc2s1)C(=O)N[C@@H](CC1CCCCC1)C(=O)N[C@H](C=O)C[C@@H]1CCNC1=O [Compound 24] | 132 ± 14.7 | 93.3 | – | – | –
O=C[C@H](C[C@@H]1CCNC1=O)NC(=O)[C@H](CC1CCCCC1)NC(=O)c1nc2ccccc2[nH]1 [Compound 57] | – | – | – | 92.3 | –
O=C[C@H](C[C@@H]1CCNC1=O)NC(=O)[C@H](Cc1ccccc1)NC(=O)c1cc2ccc(F)cc2[nH]1 [Compound 46] | – | – | – | 89.3 | –
CCN(CC)CCCC(C)Nc1ccnc2cc(Cl)ccc12 (stereo not shown) [CQ] | – | – | – | – | EC50 (2019-nCov [4]): 1.13 µM
CC(C)[C@H](NC(=O)c1cc2cc(Cl)ccc2o1)C(=O)N[C@@H](CC1CCCCC1)C(=O)N[C@H](C=O)C[C@@H]1CCNC1=O [Compound 20, 5-Chloro-N-{(S)-3-methyl-1-carbonyl-1-{{(S)-1-carbonyl-1-{{(S)-1-carbonyl-3-[(S)-2-carbonylpyrrolidin-3-yl]propan-2-yl}amino}-3-cyclohexylpropan-2-yl}amino}butan-2-yl}benzofuran-2-carboxamide] | 150 ± 9.55 | 101 | – | – | –
O=C[C@H](C[C@@H]1CCNC1=O)NC(=O)[C@H](Cc1cccc(F)c1)NC(=O)c1cc2c(F)ccc(F)c2[nH]1 [Compound 83, 4,7-Difluoron-{(S)-1-carbonyl-1-{{(S)-1-carbonyl-3-[(S)-2-carbonylpyrrolidin-3-yl]propan-2-yl}amino}-3-3fluorophenylpropan-2-yl}-1H-indole-2-carboxamide] | 113 ± 9 | 97.8 | – | – | –
O=C[C@H](C[C@@H]1CCNC1=O)NC(=O)[C@H](Cc1ccccc1)NC(=O)c1cc2cc(F)ccc2[nH]1 [Compound 45] | – | – | – | 85.2 | –
CC(C)[C@H](NC(=O)c1ccc2ccccc2n1)C(=O)N[C@@H](Cc1ccccc1)C(=O)N[C@H](C=O)C[C@@H]1CCNC1=O [Compound 11, N-{(S)-3-methyl-1-carbonyl-1-{{(S)-1-carbonyl-1-{{(S)-1-carbonyl-3-[(S)-2-carbonylpyrrolidin-3-yl]propan-2-yl}amino}-3-phenylpropan-2-yl}amino}butan-2-yl}quinoline-2-carboxamide] | 179 ± 29.4 | 89.7 | – | – | –
Cc1cc2ccccc2nc1C(=O)N[C@H](C(=O)N[C@@H](CC1CCCCC1)C(=O)N[C@H](C=O)C[C@@H]1CCNC1=O)C(C)C [Compound 19, 3-Methyl-N-{(S)-3-methyl-1-carbonyl-1-{{(S)-1-carbonyl-1-{{(S)-1-carbonyl-3-[(S)-2-carbonylpyrrolidin-3-yl]propan-2-yl}amino}-3-cyclohexylpropan-2-yl}amino}butan-2-yl}quinoline-2-carboxamide] | 62.7 ± 8.97 | 98.3 | < 100 nM | – | –
Cc1cc(C(=O)N[C@H](C(=O)N[C@@H](CC2CCCCC2)C(=O)N[C@H](C=O)C[C@@H]2CCNC2=O)C(C)C)no1 [Compound 6, 5-Methyl-N-{(S)-3-methyl-1-carbonyl-1-{{(S)-1-carbonyl-1-{{(S)-1-carbonyl-3-[(S)-2-carbonylpyrrolidin-3-yl]propan-2-yl}amino}-3-cyclohexylpropan-2-yl}amino}butan-2-yl}isoxazole-3-carboxamide] | 48.5 ± 3.17 | 95.8 | < 100 nM | – | –
O=C[C@H](C[C@@H]1CCNC1=O)NC(=O)[C@H](CC1CCCCC1)NC(=O)c1cc2c(F)cccc2[nH]1 [Compound 51] | – | – | – | 84.6 | –
Cn1c(C(=O)N[C@@H](CC2CCCCC2)C(=O)N[C@H](C=O)C[C@@H]2CCNC2=O)cc2ccccc21 [Compound 49] | – | – | – | 91.2 | –
CC(C)[C@H](NC(=O)c1cc2ccccc2o1)C(=O)N[C@@H](CC1CCCCC1)C(=O)N[C@H](C=O)C[C@@H]1CCNC1=O [Compound 17, N-{(S)-3-methyl-1-carbonyl-1-{{(S)-1-carbonyl-1-{{(S)-1-carbonyl-3-[(S)-2-carbonylpyrrolidin-3-yl]propan-2-yl}amino}-3-cyclohexylpropan-2-yl}amino}butan-2-yl}benzofuran-2-carboxamide] | 61 ± 12.5 | 106 | < 100 nM | – | –
COc1ccc2[nH]c(C(=O)N[C@@H](CC3CCCCC3)C(=O)N[C@H](C=O)C[C@@H]3CCNC3=O)cc2c1 [Compound 50] | – | – | – | 89.1 | –
